Source: BindingDB's records for doi:10.3109/14756366.2010.486793 (University of Zimbabwe, 2010)

Molecular target: glutathione S-transferase (Plasmodium falciparum)
Experiment: A range of natural products were screened for inhibition of PfGST by GST assay with CDNB as a substrate, using a 96-well SpectraMax 340 microplate spectrophotometer equipped with a kinetics mode (Molecular Devices, California). The final concentration of CDNB was 0.5 mM and of GSH was 1mM. Ethacrynic acid (ETA) and haemin were used as positive controls. The incub

| SMILES | IC50 |
| --- | --- |
| COC(=O)[C@@H]1[C@@H]2C[C@H]3N(C)CC[C@@]34c3ccccc3N(C(C)=O)[C@H]4[C@@H]2CO[C@@H]1C [Malagashanine] | > 100 µM |
| C=Cc1c(OC=O)cc(O)c2c1OC(c1ccc(O)c(O)c1)C(O)C2 (stereo not drawn) [TRAL-1] | 12 µM |
| C=C1C(=O)OC2/C=C(\COC(C)=O)CC/C=C(\CO)CC(OC(C)=O)[C@@H]12 (stereo partly drawn) [JB42C] | 8.5 µM |
